Results taken from the NIST ThermoML archive (doi:10.1021/je200788z).
± gives the expanded uncertainty stated by the source.

Columns and labels:
[1] = refractive index (Na D-line) (dimensionless); settings: 101.33 kPa, Liquid, Standard Abbe refractometry
[2] = 101.33 kPa, Liquid; for speed of sound: Sing-around technique in a fixed-path interferometer; for mass density: Vibrating tube method

Work on `CC(C)OC(=O)CC[C@H]([NH3+])C(=O)OC(C)C.CCCCCCCCCCCCOS(=O)(=O)[O-]` yielded a refractive index ([1]; 288.15 K) of 1.4575 ± 0.0011, a refractive index ([1]; 293.15 K) of 1.4559 ± 0.0011 and a refractive index ([1]; 298.15 K) of 1.4542 ± 0.0011. It also gave a refractive index ([1]; 303.15 K) of 1.4528 ± 0.0011, a refractive index ([1]; 308.15 K) of 1.4509 ± 0.0011 and a refractive index ([1]; 313.15 K) of 1.4493 ± 0.0011. The refractive index ([1]; 318.15 K) was 1.4476 ± 0.0011, the refractive index ([1]; 323.15 K) was 1.4461 ± 0.0011 and the refractive index ([1]; 328.15 K) was 1.4442 ± 0.0011. It also gave a refractive index ([1]; 333.15 K) of 1.4429 ± 0.0011, a refractive index ([1]; 338.15 K) of 1.441 ± 0.0011 and a refractive index ([1]; 343.15 K) of 1.4392 ± 0.0011. For the same compound, the speed of sound ([2]; 288.15 K) was 1439.7 ± 5.1 m/s, the mass density ([2]; 288.15 K) was 1057.9 ± 6.1 kg/m3 and the speed of sound ([2]; 293.15 K) was 1412.8 ± 5.1 m/s. For the same compound, the mass density ([2]; 293.15 K) was 1054.11 ± 6 kg/m3, the speed of sound ([2]; 298.15 K) was 1389 ± 5 m/s and the mass density ([2]; 298.15 K) was 1050.31 ± 6 kg/m3. The speed of sound ([2]; 303.15 K) was 1367.6 ± 5 m/s, the mass density ([2]; 303.15 K) was 1046.47 ± 5.9 kg/m3 and the speed of sound ([2]; 308.15 K) was 1347.9 ± 5 m/s. It also gave a mass density ([2]; 308.15 K) of 1042.57 ± 5.9 kg/m3, a speed of sound ([2]; 313.15 K) of 1329.5 ± 5 m/s and a mass density ([2]; 313.15 K) of 1038.6 ± 5.8 kg/m3. The speed of sound ([2]; 318.15 K) was 1312 ± 5 m/s, the mass density ([2]; 318.15 K) was 1034.81 ± 5.8 kg/m3 and the speed of sound ([2]; 323.15 K) was 1295.3 ± 5 m/s. The mass density ([2]; 323.15 K) was 1031.13 ± 5.8 kg/m3, the speed of sound ([2]; 328.15 K) was 1279.2 ± 5 m/s and the mass density ([2]; 328.15 K) was 1027.46 ± 5.7 kg/m3. For the same compound, the speed of sound ([2]; 333.15 K) was 1263.5 ± 5 m/s, the mass density ([2]; 333.15 K) was 1023.79 ± 5.7 kg/m3 and the speed of sound ([2]; 338.15 K) was 1248.3 ± 5 m/s. The mass density ([2]; 338.15 K) was 1021.2 ± 5.6 kg/m3, the speed of sound ([2]; 343.15 K) was 1233.6 ± 5 m/s and the mass density ([2]; 343.15 K) was 1016.44 ± 5.6 kg/m3.

`CC(C)COC(=O)CC[C@H]([NH3+])C(=O)OCC(C)C.CCCCCCCCCCCCOS(=O)(=O)[O-]` showed a refractive index ([1]; 323.15 K) of 1.4472 ± 0.0011, a refractive index ([1]; 328.15 K) of 1.4453 ± 0.0011 and a refractive index ([1]; 333.15 K) of 1.4432 ± 0.0011. For the same compound, the refractive index ([1]; 338.15 K) was 1.4414 ± 0.0011, the refractive index ([1]; 343.15 K) was 1.4393 ± 0.0011 and the speed of sound ([2]; 323.15 K) was 1330.6 ± 5 m/s. The mass density ([2]; 323.15 K) was 1014.45 ± 5.6 kg/m3, the speed of sound ([2]; 328.15 K) was 1314.4 ± 5 m/s and the mass density ([2]; 328.15 K) was 1010.78 ± 5.5 kg/m3. It also gave a speed of sound ([2]; 333.15 K) of 1299.9 ± 5 m/s, a mass density ([2]; 333.15 K) of 1007.13 ± 5.5 kg/m3 and a speed of sound ([2]; 338.15 K) of 1284.2 ± 5 m/s. The mass density ([2]; 338.15 K) was 1003.54 ± 5.4 kg/m3, the speed of sound ([2]; 343.15 K) was 1270.5 ± 5 m/s and the mass density ([2]; 343.15 K) was 1000 ± 5.4 kg/m3.

With `CC(C)OC(=O)C[NH3+].CCCCCCCCCCCCOS(=O)(=O)[O-]` [2-isopropoxy-2-oxoethan-1-aminium dodecyl sulfate] the refractive index ([1]; 303.15 K) was 1.463 ± 0.0011, the refractive index ([1]; 308.15 K) was 1.4603 ± 0.0011 and the refractive index ([1]; 313.15 K) was 1.4576 ± 0.0011. It also gave a refractive index ([1]; 318.15 K) of 1.4549 ± 0.0011, a refractive index ([1]; 323.15 K) of 1.4529 ± 0.0011 and a refractive index ([1]; 328.15 K) of 1.4497 ± 0.0011. It also gave a refractive index ([1]; 333.15 K) of 1.4465 ± 0.0011, a refractive index ([1]; 338.15 K) of 1.4441 ± 0.0011 and a refractive index ([1]; 343.15 K) of 1.4414 ± 0.0011. It also gave a speed of sound ([2]; 303.15 K) of 1373.4 ± 5 m/s, a mass density ([2]; 303.15 K) of 1025.14 ± 5.7 kg/m3 and a speed of sound ([2]; 308.15 K) of 1355.1 ± 5 m/s. For the same compound, the mass density ([2]; 308.15 K) was 1021.37 ± 5.6 kg/m3, the speed of sound ([2]; 313.15 K) was 1337.6 ± 5 m/s and the mass density ([2]; 313.15 K) was 1017.68 ± 5.6 kg/m3. For the same compound, the speed of sound ([2]; 318.15 K) was 1320.9 ± 5 m/s, the mass density ([2]; 318.15 K) was 1014.16 ± 5.5 kg/m3 and the speed of sound ([2]; 323.15 K) was 1305 ± 5 m/s. It also gave a mass density ([2]; 323.15 K) of 1010.65 ± 5.5 kg/m3, a speed of sound ([2]; 328.15 K) of 1289.6 ± 5 m/s and a mass density ([2]; 328.15 K) of 1007.14 ± 5.5 kg/m3. It also gave a speed of sound ([2]; 333.15 K) of 1274.6 ± 5 m/s, a mass density ([2]; 333.15 K) of 1003.63 ± 5.4 kg/m3 and a speed of sound ([2]; 338.15 K) of 1259.9 ± 5 m/s. The mass density ([2]; 338.15 K) was 1000.12 ± 5.4 kg/m3, the speed of sound ([2]; 343.15 K) was 1245.8 ± 5 m/s and the mass density ([2]; 343.15 K) was 996.58 ± 5.4 kg/m3.

Compound `CC(C)OC(=O)[C@@H]([NH3+])C(C)C.CCCCCCCCCCCCOS(=O)(=O)[O-]` has a refractive index ([1]; 288.15 K) of 1.4555 ± 0.0011, a refractive index ([1]; 293.15 K) of 1.4541 ± 0.0011 and a refractive index ([1]; 298.15 K) of 1.4527 ± 0.0011. It also gave a refractive index ([1]; 303.15 K) of 1.4514 ± 0.0011, a refractive index ([1]; 308.15 K) of 1.4495 ± 0.0011 and a refractive index ([1]; 313.15 K) of 1.4483 ± 0.0011. The refractive index ([1]; 318.15 K) was 1.4465 ± 0.0011, the refractive index ([1]; 323.15 K) was 1.445 ± 0.0011 and the refractive index ([1]; 328.15 K) was 1.4434 ± 0.0011. It also gave a refractive index ([1]; 333.15 K) of 1.4419 ± 0.0011, a refractive index ([1]; 338.15 K) of 1.4403 ± 0.0011 and a refractive index ([1]; 343.15 K) of 1.4388 ± 0.0011. It also gave a speed of sound ([2]; 288.15 K) of 1438.4 ± 5.1 m/s, a mass density ([2]; 288.15 K) of 1033.35 ± 5.8 kg/m3 and a speed of sound ([2]; 293.15 K) of 1418.5 ± 5.1 m/s. For the same compound, the mass density ([2]; 293.15 K) was 1029.74 ± 5.7 kg/m3, the speed of sound ([2]; 298.15 K) was 1400.5 ± 5 m/s and the mass density ([2]; 298.15 K) was 1026.11 ± 5.7 kg/m3. The speed of sound ([2]; 303.15 K) was 1382.9 ± 5 m/s, the mass density ([2]; 303.15 K) was 1022.44 ± 5.7 kg/m3 and the speed of sound ([2]; 308.15 K) was 1365.9 ± 5 m/s. The mass density ([2]; 308.15 K) was 1018.71 ± 5.6 kg/m3, the speed of sound ([2]; 313.15 K) was 1349.4 ± 5 m/s and the mass density ([2]; 313.15 K) was 1014.93 ± 5.6 kg/m3. For the same compound, the speed of sound ([2]; 318.15 K) was 1333.2 ± 5 m/s, the mass density ([2]; 318.15 K) was 1011.36 ± 5.5 kg/m3 and the speed of sound ([2]; 323.15 K) was 1317.4 ± 5 m/s. It also gave a mass density ([2]; 323.15 K) of 1007.86 ± 5.5 kg/m3, a speed of sound ([2]; 328.15 K) of 1301.9 ± 5 m/s and a mass density ([2]; 328.15 K) of 1004.37 ± 5.4 kg/m3. For the same compound, the speed of sound ([2]; 333.15 K) was 1286.6 ± 5 m/s, the mass density ([2]; 333.15 K) was 1000.88 ± 5.4 kg/m3 and the speed of sound ([2]; 338.15 K) was 1270.4 ± 5 m/s. For the same compound, the mass density ([2]; 338.15 K) was 997.39 ± 5.4 kg/m3, the speed of sound ([2]; 343.15 K) was 1254.9 ± 5 m/s and the mass density ([2]; 343.15 K) was 993.9 ± 5.3 kg/m3.

For `CC(C)OC(=O)[C@@H]1CCC[NH2+]1.CCCCCCCCCCCCOS(=O)(=O)[O-]` [(S)-2-(isopropoxycarbonyl)pyrrolidin-1-ium dodecyl sulfate], the refractive index ([1]; 288.15 K) was 1.4575 ± 0.0011, the refractive index ([1]; 293.15 K) was 1.4559 ± 0.0011 and the refractive index ([1]; 298.15 K) was 1.4542 ± 0.0011. For the same compound, the refractive index ([1]; 303.15 K) was 1.4525 ± 0.0011, the refractive index ([1]; 308.15 K) was 1.451 ± 0.0011 and the refractive index ([1]; 313.15 K) was 1.4492 ± 0.0011. It also gave a refractive index ([1]; 318.15 K) of 1.4478 ± 0.0011, a refractive index ([1]; 323.15 K) of 1.4461 ± 0.0011 and a refractive index ([1]; 328.15 K) of 1.4446 ± 0.0011. It also gave a refractive index ([1]; 333.15 K) of 1.4432 ± 0.0011, a refractive index ([1]; 338.15 K) of 1.4414 ± 0.0011 and a refractive index ([1]; 343.15 K) of 1.4398 ± 0.0011. For the same compound, the speed of sound ([2]; 288.15 K) was 1455.5 ± 5.1 m/s, the mass density ([2]; 288.15 K) was 1054.33 ± 6 kg/m3 and the speed of sound ([2]; 293.15 K) was 1436.8 ± 5.1 m/s. For the same compound, the mass density ([2]; 293.15 K) was 1050.45 ± 6 kg/m3, the speed of sound ([2]; 298.15 K) was 1419.2 ± 5.1 m/s and the mass density ([2]; 298.15 K) was 1046.8 ± 5.9 kg/m3. The speed of sound ([2]; 303.15 K) was 1402.4 ± 5 m/s, the mass density ([2]; 303.15 K) was 1043.15 ± 5.9 kg/m3 and the speed of sound ([2]; 308.15 K) was 1386.3 ± 5 m/s. The mass density ([2]; 308.15 K) was 1039.52 ± 5.8 kg/m3, the speed of sound ([2]; 313.15 K) was 1370.7 ± 5 m/s and the mass density ([2]; 313.15 K) was 1035.89 ± 5.8 kg/m3. It also gave a speed of sound ([2]; 318.15 K) of 1355.5 ± 5 m/s, a mass density ([2]; 318.15 K) of 1032.27 ± 5.8 kg/m3 and a speed of sound ([2]; 323.15 K) of 1340.6 ± 5 m/s. It also gave a mass density ([2]; 323.15 K) of 1028.73 ± 5.7 kg/m3, a speed of sound ([2]; 328.15 K) of 1326 ± 5 m/s and a mass density ([2]; 328.15 K) of 1025.22 ± 5.7 kg/m3. The speed of sound ([2]; 333.15 K) was 1311.7 ± 5 m/s, the mass density ([2]; 333.15 K) was 1021.7 ± 5.6 kg/m3 and the speed of sound ([2]; 338.15 K) was 1297.6 ± 5 m/s. For the same compound, the mass density ([2]; 338.15 K) was 1018.2 ± 5.6 kg/m3, the speed of sound ([2]; 343.15 K) was 1284 ± 5 m/s and the mass density ([2]; 343.15 K) was 1014.69 ± 5.6 kg/m3.
